Two molecules from PMC12362587, “Untargeted Diversity-Oriented Synthesis for the Discovery of New Antitumor Agents: An Integrated Approach of Inverse Virtual Screening, Bioinformatics, and Omics for Target Deconvolution” (Journal of Medicinal Chemistry, 2025) can be followed below.

Test [1] has as its target T1, protein-tyrosine kinase 6 (BRK) (Homo sapiens, UniProt Q13882).
T1 construct: purchased BPS Bioscience
Nature of the test: BRK kinase assay (BPS Bioscience). The class given is biochemical. The note with it: top concentration 30 μM, read-out: EC50 or IC50, protein-tyrosine kinase 6. The procedure:
The assay was performed in a volume of 50 μL in a 96-well white plate. […] For activity measurement, the kinase (final concentration, 10 ng per reaction), PTK (Poly-Glu, Tyr 4:1; BRK substrate), ATP (final concentration, 500 μM) and compounds were incubated for 45 min at 30 °C. The compounds were added at different concentrations in the reaction buffer, starting from a final concentration of 30 μM. Buffer with the same amount of DMSO (1%) was used as a negative control. After the incubation time, ADP-Glo Kinase detection reagent was added for 45 min at room temperature. The generated luminescent signal was read in end point mode using a PerkinElmer AlphaScreen multimodal plate reader (PerkinElmer, Waltham, MA, USA). Experiments were performed in triplicate. IC50 values were calculated with GraphPad Prism 8.0 software by nonlinear dose–response inhibition regression.

Another test concerns the target human recombinant CB1R (Homo sapiens, UniProt P21554). Nature of the test: Competition binding assay, displacement of [3H]-CP-55,940. Conditions: displacement of [3H]-CP-55,940, HEK-293 membranes; read-out: EC50 or IC50, cannabinoid receptor 1. As to the method: Binding assays at equilibrium were conducted as described in Di Micco et al., 2024. […]. All compounds were evaluated following the manufacturer’s protocol (PerkinElmer distributed by Revvity, Italy). […] The K i values were calculated using the Cheng-Prusoff equation, based on the IC50 values obtained through GraphPad PRISM software (version 10.2.2). The results are expressed as K i (μM), represented as mean ± SEM, and reflect the average of three independent experiments performed in duplicate.
Background: Displacement assays read how much labelled ligand stays bound in the presence of the test substance.

The next test has as its system A375 cells. In words: Intracellular ROS measurement (DCFH-DA). The class given is cell-based, human. Conditions: 10, 5, 2.5 μM for 2–8 h. As to the method:
Cells were treated with compounds 31 and 63 (10, 5, and 2.5 μM) for 2–8 h, and ROS levels were subsequently measured.
The intracellular ROS generation was detected using 10 μM DCFH-DA. This compound is oxidized by ROS to fluorescent […] (DCF) inside the cells. A375 cells were seeded (5 × 10^3 cells/well) in a volume of 100 μL per well in black 96-well OptiPlate (PerkinElmer, USA), allowing them to adhere for 24 h. After, the cells were incubated for 2, 4, and 8 h with compounds (10, 5, and 2.5 μM). Subsequently, the cells were washed twice with PBS and a staining solution containing DCFH-DA in serum-free medium without phenol red was added for 30 min at 37 °C in the dark. The stained cells were washed, and the fluorescence signals (excitation/emission 485 nm/535 nm) were read using a PerkinElmer EnSpire multimode plate reader and expressed as DCFH fluorescence intensity.

The target of test [2] is T2, Platelet-Derived Growth Factor Receptor-Beta (PDGFRB) (Homo sapiens, UniProt P09619).
T2 construct: Eurofins (contract assay)
In words: Kinase Enzymatic Radiometric [10 uM ATP] KinaseProfiler LeadHunter Assay. The note with it: Eurofins, read-out: EC50 or IC50, PDGFRB. The class given is biochemical. An excerpt:
(§1) For displacement assays on G-protein coupled receptor 55 (GPR55), Vasopressin V2 receptor (V2R), Adenosine A1 receptor (A1AR), Fibroblast growth factor receptor 1 (FGFR1), Vascular endothelial growth factor receptor 2 (VEGFR2), Platelet-derived growth factor receptor beta (PDGFRB), Vascular endothelial growth factor receptor 1 (VEGFR1), Thromboxane Synthase (TXS) and Phosphodiesterase 10A (PDE10A), we commissioned the Eurofins company which employed its specific experimental methods, accessible at the link: https://www.eurofins.com/.

Test [3] addresses T3, Fibroblast Growth Factor Receptor 1 (FGFR1) (Homo sapiens, UniProt P11362).
T3 construct: Eurofins (contract assay)
The test is described as above. The class given is biochemical. The note with it: Eurofins, read-out: EC50 or IC50, FGFR1.
Description: as §1

Test [4] addresses T4, Vascular Endothelial Growth Factor Receptor (VEGFR-2)/KDR (Homo sapiens, UniProt P35968).
T4 construct: Eurofins (contract assay)
The test is described as above. The class given is biochemical. The note with it: Eurofins, read-out: EC50 or IC50, VEGFR-2/KDR.
Description: as §1

For test [5], the target named is T5, Vascular Endothelial Growth Factor Receptor-1 Flt-1 (VEGFR1) (FLT1) (Homo sapiens, UniProt P17948).
T5 construct: Eurofins (contract assay)
Described as above. The format is biochemical. The note with it: Eurofins, read-out: EC50 or IC50, VEGFR1 (FLT1).
Description: as §1

A further test relates to HEPG2. In words: MTT cell viability assay. The class given is cell-based. The note with it: Homo sapiens, 24 h, compounds 0.01–40 μM, read-out: In Vitro Cytotoxicity, EC50 ± SD, HEPG2. An excerpt:
Initially, we phenotypically screened the synthesized compounds over a panel of tumor cell lines composed of HEPG2, A375, SHSY5Y, MCF7, and A549 derived from liver tumor, melanoma, neuroblastoma, breast cancer, and lung adenocarcinoma, respectively. We also considered the HaCaT cell line, coming from keratinocytes, as a healthy control line. As reference, cytotoxic chemotherapeutic agent 5-fluorouracil (5-FU) has been used. The results obtained performing the MTT (3-(4,5-dimethylthiazolyl-2)-2,5-diphenyltetrazolium bromide) assay are summarized in Table .
The human hepatoma HEPG2 cell line was obtained from American Type Culture Collection (ATCC, Rockville, MD, USA). Cells were grown in Eagle’s Minimum Essential Medium (EMEM) supplemented with 10% (v/v) fetal bovine serum (FBS), 2 mM L-glutamine, 1% (v/v) nonessential amino acids, 100 U/mL penicillin, and 0.1 mg/mL streptomycin.
Cell viability was established by measuring mitochondrial metabolic activity with MTT. In brief, HEPG2 (1 × 10^4 cells/well), A375 (2 × 10^3 cells/well), HaCaT (3 × 10^3 cells/well), A549 (3 × 10^3 cells/well), SHSY5Y (2 × 10^4 cells/well), and MCF 7 (5 × 10^3 cells/well) were plated into 96-well plates for 24 h, then the compounds (0.01–40 μM) were added. After 24h, cells were replaced with a fresh medium containing 0.5 mg/mL MTT. Cells were incubated 1–3 h at 37 °C, then the medium was discarded, and formazan blue crystals in the cells were dissolved in 100 μL per well of a solution containing isopropanol/HCl 0.1 M. The absorbance was measured at 570 nm using a microplate reader (Multiskan Go, Thermo Scientific, Waltham, MA, USA). Cell viability was expressed as a percentage relative to the untreated cells cultured in medium with 0.1% DMSO and set to 100%, whereas 10% DMSO was used as positive control and set to 0% of viability. The EC50 values were calculated using GraphPad Prism 8.0 software by nonlinear regression of dose–response inhibition.

T1 sequence (Q13882 whole entry): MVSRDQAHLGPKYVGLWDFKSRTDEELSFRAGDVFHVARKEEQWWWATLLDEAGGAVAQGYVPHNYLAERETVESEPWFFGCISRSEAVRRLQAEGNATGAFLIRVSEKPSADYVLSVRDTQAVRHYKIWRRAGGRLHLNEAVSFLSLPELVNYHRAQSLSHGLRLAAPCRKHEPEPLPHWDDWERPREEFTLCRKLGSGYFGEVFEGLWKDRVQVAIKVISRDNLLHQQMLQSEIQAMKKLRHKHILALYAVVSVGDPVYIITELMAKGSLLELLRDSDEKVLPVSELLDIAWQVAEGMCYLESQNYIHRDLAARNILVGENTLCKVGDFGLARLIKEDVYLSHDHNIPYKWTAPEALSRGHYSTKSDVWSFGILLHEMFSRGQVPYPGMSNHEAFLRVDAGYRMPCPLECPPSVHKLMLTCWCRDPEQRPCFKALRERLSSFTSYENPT
T3 sequence (P11362 22-822): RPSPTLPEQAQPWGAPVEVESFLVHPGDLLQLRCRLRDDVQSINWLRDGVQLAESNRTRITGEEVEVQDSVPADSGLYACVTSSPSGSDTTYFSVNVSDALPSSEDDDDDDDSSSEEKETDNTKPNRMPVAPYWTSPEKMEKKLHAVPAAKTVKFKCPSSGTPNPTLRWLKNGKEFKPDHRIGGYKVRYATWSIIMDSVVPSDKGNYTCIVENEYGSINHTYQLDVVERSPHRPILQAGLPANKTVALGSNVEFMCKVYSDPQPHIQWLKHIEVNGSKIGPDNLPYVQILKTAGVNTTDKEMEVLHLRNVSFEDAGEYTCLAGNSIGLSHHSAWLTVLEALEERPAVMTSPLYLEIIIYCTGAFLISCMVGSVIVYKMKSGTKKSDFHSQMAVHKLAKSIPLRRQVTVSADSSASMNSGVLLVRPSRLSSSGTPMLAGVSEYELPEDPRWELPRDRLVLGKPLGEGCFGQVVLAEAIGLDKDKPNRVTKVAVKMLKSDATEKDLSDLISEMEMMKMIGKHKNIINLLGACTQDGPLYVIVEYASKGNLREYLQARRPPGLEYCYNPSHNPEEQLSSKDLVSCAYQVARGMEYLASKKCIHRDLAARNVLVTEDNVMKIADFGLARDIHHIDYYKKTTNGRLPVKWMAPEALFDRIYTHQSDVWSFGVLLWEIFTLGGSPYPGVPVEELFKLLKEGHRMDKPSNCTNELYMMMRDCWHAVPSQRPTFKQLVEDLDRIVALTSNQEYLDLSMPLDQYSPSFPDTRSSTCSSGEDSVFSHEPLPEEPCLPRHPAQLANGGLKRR
T4 sequence (P35968 20-1356): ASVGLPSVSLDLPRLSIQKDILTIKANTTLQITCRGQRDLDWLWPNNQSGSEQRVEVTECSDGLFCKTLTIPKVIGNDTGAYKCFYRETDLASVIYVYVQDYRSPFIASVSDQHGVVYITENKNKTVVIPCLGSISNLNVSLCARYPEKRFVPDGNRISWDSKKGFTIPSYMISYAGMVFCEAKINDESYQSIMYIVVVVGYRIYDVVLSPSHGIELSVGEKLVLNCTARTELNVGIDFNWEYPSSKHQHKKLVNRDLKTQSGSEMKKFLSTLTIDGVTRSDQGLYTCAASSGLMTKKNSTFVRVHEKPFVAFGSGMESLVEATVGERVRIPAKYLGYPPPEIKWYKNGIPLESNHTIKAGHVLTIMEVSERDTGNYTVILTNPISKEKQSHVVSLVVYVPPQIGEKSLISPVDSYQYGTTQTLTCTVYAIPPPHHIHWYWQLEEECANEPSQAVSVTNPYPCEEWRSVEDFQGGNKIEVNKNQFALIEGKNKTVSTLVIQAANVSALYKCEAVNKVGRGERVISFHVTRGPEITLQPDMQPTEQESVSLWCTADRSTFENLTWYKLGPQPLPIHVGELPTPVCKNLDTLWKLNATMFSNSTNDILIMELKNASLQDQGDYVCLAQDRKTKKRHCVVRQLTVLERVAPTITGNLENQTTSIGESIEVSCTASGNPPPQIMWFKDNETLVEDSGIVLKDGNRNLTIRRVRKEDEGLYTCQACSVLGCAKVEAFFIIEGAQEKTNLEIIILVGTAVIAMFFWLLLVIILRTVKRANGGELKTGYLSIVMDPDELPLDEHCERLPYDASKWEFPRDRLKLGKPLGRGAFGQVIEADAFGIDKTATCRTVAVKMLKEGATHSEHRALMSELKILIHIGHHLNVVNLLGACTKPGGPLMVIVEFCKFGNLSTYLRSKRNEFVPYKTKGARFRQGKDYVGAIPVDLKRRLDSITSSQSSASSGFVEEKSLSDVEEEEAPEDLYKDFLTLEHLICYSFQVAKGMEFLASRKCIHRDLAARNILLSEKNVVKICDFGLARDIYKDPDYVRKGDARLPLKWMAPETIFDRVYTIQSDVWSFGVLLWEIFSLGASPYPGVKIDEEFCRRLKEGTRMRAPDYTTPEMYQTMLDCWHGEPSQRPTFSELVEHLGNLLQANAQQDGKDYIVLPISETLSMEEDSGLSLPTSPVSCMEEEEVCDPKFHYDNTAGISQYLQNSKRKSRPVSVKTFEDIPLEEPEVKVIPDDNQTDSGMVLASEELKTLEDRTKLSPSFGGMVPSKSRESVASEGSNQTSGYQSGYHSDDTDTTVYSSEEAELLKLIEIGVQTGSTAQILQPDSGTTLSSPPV
T5 sequence (P17948 27-1338): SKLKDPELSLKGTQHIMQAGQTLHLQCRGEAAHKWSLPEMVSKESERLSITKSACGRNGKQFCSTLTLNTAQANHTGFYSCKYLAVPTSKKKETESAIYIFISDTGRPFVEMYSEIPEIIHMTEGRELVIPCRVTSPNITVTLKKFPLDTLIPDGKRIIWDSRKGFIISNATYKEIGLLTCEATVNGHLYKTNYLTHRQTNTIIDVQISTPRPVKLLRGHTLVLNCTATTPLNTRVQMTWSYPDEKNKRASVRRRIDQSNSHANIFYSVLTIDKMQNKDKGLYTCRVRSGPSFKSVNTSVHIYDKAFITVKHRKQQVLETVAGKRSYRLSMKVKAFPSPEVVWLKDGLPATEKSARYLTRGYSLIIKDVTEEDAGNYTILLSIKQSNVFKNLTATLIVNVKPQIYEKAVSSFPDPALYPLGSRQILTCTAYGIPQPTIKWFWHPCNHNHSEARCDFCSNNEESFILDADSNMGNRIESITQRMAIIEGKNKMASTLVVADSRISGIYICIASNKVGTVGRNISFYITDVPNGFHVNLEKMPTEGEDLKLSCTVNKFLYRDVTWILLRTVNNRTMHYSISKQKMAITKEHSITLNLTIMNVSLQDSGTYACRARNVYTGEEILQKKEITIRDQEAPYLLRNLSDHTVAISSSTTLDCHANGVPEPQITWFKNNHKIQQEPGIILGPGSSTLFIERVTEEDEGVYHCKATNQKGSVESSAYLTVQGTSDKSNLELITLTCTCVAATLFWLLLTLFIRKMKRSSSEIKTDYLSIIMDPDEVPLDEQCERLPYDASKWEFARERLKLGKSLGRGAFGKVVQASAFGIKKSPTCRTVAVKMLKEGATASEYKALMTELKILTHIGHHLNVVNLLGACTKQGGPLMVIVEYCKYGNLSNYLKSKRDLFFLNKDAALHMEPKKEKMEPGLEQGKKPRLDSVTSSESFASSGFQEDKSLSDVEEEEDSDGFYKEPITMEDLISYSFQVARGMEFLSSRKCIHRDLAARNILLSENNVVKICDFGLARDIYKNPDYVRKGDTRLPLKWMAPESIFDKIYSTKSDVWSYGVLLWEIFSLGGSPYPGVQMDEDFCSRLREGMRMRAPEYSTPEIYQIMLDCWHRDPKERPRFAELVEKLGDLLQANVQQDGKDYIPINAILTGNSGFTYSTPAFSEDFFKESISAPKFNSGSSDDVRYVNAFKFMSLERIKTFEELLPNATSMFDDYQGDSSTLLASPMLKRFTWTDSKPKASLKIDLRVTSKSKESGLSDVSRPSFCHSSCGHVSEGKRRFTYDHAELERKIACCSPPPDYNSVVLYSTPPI
T2 sequence (P09619 33-1106): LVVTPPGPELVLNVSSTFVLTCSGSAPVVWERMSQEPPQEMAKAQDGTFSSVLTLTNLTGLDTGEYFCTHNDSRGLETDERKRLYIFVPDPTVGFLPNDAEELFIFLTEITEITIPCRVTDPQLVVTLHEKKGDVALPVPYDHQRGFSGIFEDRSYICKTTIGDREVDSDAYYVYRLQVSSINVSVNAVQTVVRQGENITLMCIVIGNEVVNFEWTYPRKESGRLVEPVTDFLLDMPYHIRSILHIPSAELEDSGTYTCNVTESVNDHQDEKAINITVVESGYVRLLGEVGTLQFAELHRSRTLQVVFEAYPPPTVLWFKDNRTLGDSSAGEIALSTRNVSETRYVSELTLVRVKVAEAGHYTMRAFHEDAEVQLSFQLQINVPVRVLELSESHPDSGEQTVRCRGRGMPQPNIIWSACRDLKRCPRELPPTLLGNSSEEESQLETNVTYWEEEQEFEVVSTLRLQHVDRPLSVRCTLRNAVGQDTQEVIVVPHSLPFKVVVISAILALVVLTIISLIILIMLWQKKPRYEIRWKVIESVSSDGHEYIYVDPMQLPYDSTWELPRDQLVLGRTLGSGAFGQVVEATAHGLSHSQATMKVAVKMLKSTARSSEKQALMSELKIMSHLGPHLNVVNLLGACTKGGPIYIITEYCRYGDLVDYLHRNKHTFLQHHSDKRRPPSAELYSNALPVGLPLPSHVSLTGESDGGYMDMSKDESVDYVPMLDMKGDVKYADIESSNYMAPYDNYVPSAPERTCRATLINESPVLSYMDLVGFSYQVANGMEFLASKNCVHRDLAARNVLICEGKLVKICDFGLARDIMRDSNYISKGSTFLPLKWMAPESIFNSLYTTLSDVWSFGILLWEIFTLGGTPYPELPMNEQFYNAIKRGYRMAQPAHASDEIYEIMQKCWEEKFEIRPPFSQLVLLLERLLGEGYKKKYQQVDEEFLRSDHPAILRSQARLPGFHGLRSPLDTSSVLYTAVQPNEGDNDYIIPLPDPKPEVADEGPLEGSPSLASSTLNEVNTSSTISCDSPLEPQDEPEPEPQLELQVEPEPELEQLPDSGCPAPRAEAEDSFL

A word on the EC50: it is the concentration needed to bring the measured effect to its halfway point. `CC(C)C[C@H]1C(=O)N(Cc2ccc(C(F)(F)F)cc2)c2ccccc2C(=O)N1Cc1ccc(C(F)(F)F)cc1` [Compound 31, (S)-3-Isobutyl-1,4-bis(4-(trifluoromethyl)benzyl)-3,4-dihydro-1H-benzo[e][1,4]diazepine-2,5-dione]: the IC50 in test [1] is 19 ± 3.04 µM; at human recombinant CB1R it was over 30 µM; in test [2] it was at least 30 µM; in test [3], at least 30 µM; in test [4], at least 30 µM; in test [5] it was at least 30 µM. For the same molecule, the “intracellular ROS levels” value in the test with A375 cells is listed as “significant concentration-dependent increase in ROS levels”. Also, the EC50 in the test with HEPG2 was 12 ± 3.51 µM.

Take `CC(C)C[C@@H](C(=O)OCc1ccccc1)N1Cc2ccccc2NC1=O` [Compound 63, Benzyl (S)-4-Methyl-2-(2-oxo-1,4-dihydroquinazolin-3(2H)-yl)pentanoate]: the IC50 was 29.2 ± 4.53 µM in test [1]; over 30 µM on human recombinant CB1R; at least 30 µM in test [2]; at least 30 µM in test [3]; at least 30 µM in test [4]; at least 30 µM in test [5]. For the same molecule, the “intracellular ROS levels” value in the test on A375 cells was “delayed and more moderate effect than compound 31”. Further, in the test on HEPG2, the EC50 turned out to be 2.17 ± 0.96 µM.
